Reference: patent US20090054507A1, “CONTROL OF MALIGNANT CELLS BY KINASE INHIBITION” (CLEVELAND STATE UNIVERSITY, priority 2006, published 2009)
Entries after “also recorded” stand apart in the source; their conditions may differ.

Tests used:
[1] = test system: tumors of ACHN cells; assay: Murine xenograft of ACHN cells, tumor volume; assay type: in vivo, mice; settings: DMAT at effective dosage levels (in DMSO) per animal per day, 59 days
Protocol: FIG. 94 illustrates the effect of administration of DMAT as compared to a control over a period of 59 days. FIG. 94 is a graph of a murine xenograft treated with DMAT, compared to a control. Mice with tumors of ACHN cells were treated with DMAT at effective dosage levels (in DMSO) per animal per day. The daily animal weight was averaged at 32.5 g at the start of treatment. Tumors were measured daily and tumor volumes were calculated based upon a prolate spheroid model. FIG. 94 illustrates the significant benefits of treatment with DMAT (circles) as compared to the control (squares). […] The differences in tumor volume between control cells and those treated with DMAT, as described herein, are striking.

[2] = test system: SW-480 xenografts; assay: In vivo therapy of SW-480 xenografts, tumor volume; set-up: species or system mice
From the text: (§1) Creation of the xenografts MCF-7, SW-480 and WM-164. Immunodeficient male and female athymic nude nu/nu mice were used, provided and housed by Dr. Lindner, DJ from Taussig Cancer Center, Cleveland Clinic and Case Western Reserve University. Mice were checked every day. Mice were housed in filtered air flow cabinets with autoclaved bedding at a density of 5 mice/cage. They were fed autoclaved Purina Lab Rodent Chow® 5010 and HCl-acidified distilled water ad libitum and were placed in rooms with controlled temperature, humidity and 12-hr light-dark cycles. Procedures involving animals and their care were conducted in conformity with the institutional guidelines that are in compliance with national and international laws and policies (EEC Council Directive 86/609, OJL 358, Dec. 1, 1987, and the National Institutes of Health Guide for the Care and Use of Laboratory, Animals, NIH Publication 85-23, 1985).
(§2) For engraftment, cells in cell culture media were injected. […] Cells were counted with a hemacytometer using Trypan blue (only live cells were counted). […]
In vivo therapy with DMAT of SW-480 xenografts. […] Tumor diameters were measured using a caliper and tumor volume was calculated using the prolate-spheroid formula. […]

[3] = test system: tumors of U-87 cells; assay: Murine xenograft of U-87 cells, tumor volume; assay type: in vivo, mice; settings: DMAT at effective dosage levels (in DMSO) per animal per day, approximately 24 days
Protocol: FIG. 96 illustrates the effect of administration of DMAT as compared to a control, i.e. DMSO, for a period of approximately 24 days. FIG. 96 is a graph of a murine xenograft treated with DMAT, compared to a control. Mice with tumors of U-87 cells were treated with DMAT at effective dosage levels (in DMSO) per animal per day. The daily animal weight was averaged at 32.5 g at the start of treatment. Tumors were measured daily and tumor volumes were calculated based upon a prolate spheroid model. FIG. 96 illustrates the significant benefits of treatment with DMAT (squares) as compared to the control (diamonds).

[4] = test system: SW-480 cells; assay: Proliferation assay in vitro, SW-480; assay type: cell-based, human; settings: four days
From the text: Viability (proliferation) assay, Trypan blue exclusion. Cells were counted using a Neubauer hemacytometer.

[5] = test system: WM-164 xenografts; assay: In vivo therapy of WM-164 xenografts, tumor volume; set-up: species or system mice
From the text: as §1, §2
In vivo therapy with DMAT of WM-164 xenografts. […] Tumor diameters were measured using a caliper and tumor volume was calculated using the prolate-spheroid formula. […]

[6] = test system: MEG-01 cells; assay: Viability (proliferation) assay, Trypan blue exclusion, MEG-01; assay type: cell-based, human
[7] = test system: WM-164 cells; assay: Anchorage independence in soft agar, WM-164; assay type: cell-based, human; settings: DMAT 10 μM, one week
[8] = test system: MEG-01 xenografts; assay: Blood counts in MEG-01 xenograft mice; assay type: in vivo
Protocol: At the end of the trial, tail-bleeding times assay was performed and blood was collected for blood counts from live and anesthetized mice. After these experiments were completed mice were sacrificed and tumors and organs were collected. Samples were fixed in formalin for further processing.
Mice blood collection and blood counts. Blood counts are dependent upon the method and time of blood collection. Whole blood was collected from the retro-orbital sinus (under the eye) of anesthesiated mice (both DMSO treated and DMAT treated batch). EDTA and prostaglandin E1 (PGE1) were used at collection to prevent clotting during blood collection. 500 μl mice whole blood with 100 μl anticoagulant were used for counting (a 1:5 dilution). A hematological analyzer was used for this. Samples were compared (gated) with normal mice (C57BL strain).

[9] = small tumors remained at the end of the treatment

Compound: CN(C)c1nc2c(Br)c(Br)c(Br)c(Br)c2[nH]1 [DMAT, 2-dimethylamino-4,5,6,7-tetrabromo-1H-benzimidazole]
- tumor volume [1]: proliferation arrest in vivo for large tumors and tumor ablation in small tumors
- tumor volume ([2]; DMAT 40 mg/kg (in DMSO) per day, thirteen days, control about 260 to about 1800 mm^3): only a minor increase in tumor volume
- response of xenograft tumors to treatment (summary) [2, 9]: significant reduction in tumor volume
- tumor growth vs untreated control [3]: significantly less cancerous growth
- cell counts ([4]; 10 μM DMAT): cell counts between the control and the SW-480 cells treated with 20 μM
- cell counts / proliferation ([4]; 20 μM DMAT): lowest cell counts; also recorded: proliferation arrest
- tumor volume ([5]; DMAT 10 mg/kg (in DMSO) per day, fourteen days, control about 50 to about 1000 mm^3): only a slight increase in tumor volume
- response of xenograft tumors to treatment (summary) [5, 9]: significant reduction in tumor volume
- proliferation of MEG-01 cells (Trypan Blue exclusion) ([6]; 25 μM DMAT, compared with 5 nM PMA): level of decrease was similar
- cell number / proliferation rate of MEG-01 cells ([6]; 50 μM DMAT, 4 days of treatment): maintained a steady number of cells
- colonies in soft agar [7]: much smaller and fewer colonies
- platelet counts ([8]; DMAT 50 μl/day of 125 mg, compared to a control): increase in platelet counts
- percentage of abnormal cells in blood counts ([8]; DMAT treated vs DMSO control): the control has higher percentages of abnormal cells
